Results on six compounds are retold here after US20170223995A1, “Sweetener Blend Compositions” (The Coca-Cola Company, priority 2011, published 2017).

A short description of this assay: Multi-sip and swallow taste test by a trained taste tester. It counts as in vivo. As for the experimental part:
Multi-Sip and Swallow Test Method
A sip (approximately 2.0-5.0 mL) of a sample was swallowed by a trained taste tester. After allowing a 15-25 second interval to pass, a second sip of the sample is tasted and swallowed. This process is repeated as needed to determine the taste properties. The taste properties are then recorded by the trained taste tester. Preferably no more than ten samples are tested per day to avoid taste fatigue. Each sample was taken at least 1.5 hours following eating or drinking.

[1] abbreviates: 500 ppm in carbon-treated water.
[2] abbreviates: as restated in the Discussion, out of highest five.
Where [3] appears, read: 100,000 ppm in carbon-treated water.

For `C=C1C[C@@]23CC[C@H]4[C@@](C)(CCC[C@@]4(C)C(=O)O[C@@H]4O[C@H](CO)[C@@H](O)[C@H](O)[C@H]4O)[C@@H]2CC[C@]1(O[C@@H]1O[C@H](CO)[C@@H](O)[C@H](O[C@@H]2O[C@H](CO)[C@@H](O)[C@H](O)[C@H]2O)[C@H]1O[C@@H]1O[C@H](CO)[C@@H](O)[C@H](O)[C@H]1O)C3` [rebaudioside A], under setting [1], the bitterness intensity is given as 4 out of 5, the sugar-like tasting quality was 0 out of 5, the sweetness intensity is listed as 5 out of 10 and the sweetness linger was 5 out of 5. The compound further displayed a sweetness linger under setting [2] of 5.

Turning to `C=C1C[C@@]23CC[C@H]4[C@@](C)(CCC[C@@]4(C)C(=O)O[C@@H]4O[C@H](CO)[C@@H](O)[C@H](O)[C@H]4O[C@@H]4O[C@H](CO)[C@@H](O)[C@H](O)[C@H]4O)[C@@H]2CC[C@]1(O[C@@H]1O[C@H](CO)[C@@H](O)[C@H](O[C@@H]2O[C@H](CO)[C@@H](O)[C@H](O)[C@H]2O)[C@H]1O[C@@H]1O[C@H](CO)[C@@H](O)[C@H](O)[C@H]1O)C3` [rebaudioside D], the “sweetness (in words, compared with rebaudioside A)” value (Discussion) is given as “less sweetness”. Further, the sweetness linger under setting [2] was found to be 5. For the same compound, the “sugar-like tasting quality (in words, comparison)” value (text remarks, comparison with rebaudioside A) is recorded as “slightly more sugar-like taste quality”.

For the compound `C=C1C[C@@]23CC[C@H]4[C@@](C)(CCC[C@@]4(C)C(=O)O)[C@@H]2CC[C@]1(O[C@@H]1O[C@H](CO)[C@@H](O)[C@H](O)[C@H]1O[C@@H]1O[C@H](CO)[C@@H](O)[C@H](O)[C@H]1O)C3` [steviolbioside], under setting [1], the bitterness intensity entry is reported as “no bitterness”, the sugar-like tasting quality is 2 out of 5, the sweetness intensity is 5 out of 10 and the sweetness linger was 3 out of 5. Further, the sweetness onset entry under setting [1] was “slow sweetness onset”.

Regarding `C=C1C[C@@]23CC[C@H]4[C@@](C)(CCC[C@@]4(C)C(=O)O[C@@H]4O[C@H](CO)[C@@H](O)[C@H](O)[C@H]4O)[C@@H]2CC[C@]1(O[C@@H]1O[C@H](CO)[C@@H](O)[C@H](O)[C@H]1O[C@@H]1O[C@H](CO)[C@@H](O)[C@H](O)[C@H]1O)C3` [stevioside], under setting [1], the bitterness intensity is 5 out of 5, the sugar-like tasting quality was 0 out of 5, the sweetness intensity was 5 out of 10 and the sweetness linger was 5 out of 5.

For `OC[C@H]1O[C@@](CO)(O[C@H]2O[C@H](CO)[C@@H](O)[C@H](O)[C@H]2O)[C@@H](O)[C@@H]1O` [sugar], under setting [3], the bitterness intensity was found to be 0, the sugar-like tasting quality is 5, the sweetness intensity is reported as 10 and the sweetness linger came to 0.

With rebaudioside B, under setting [1], the bitterness intensity was 0 out of 5, the sugar-like tasting quality is reported as 3 out of 5, the sweetness intensity is reported as 2 out of 10 and the sweetness linger was 3 out of 5. The compound further returned a sweetness linger under setting [2] of 3.
